Source: US3956491A, “Medicine containing the main sapogenin of helleborus” (priority 1974, dated 1976)

How the values were obtained:
[1] = central nervous system influencing activity
[2] = tested on: indometacin ulcer of rats; assay: indometacin ulcer of rats (method of John and Adrian modified by Wilhelmi); type: in vivo, Albino rats of the strain SIV 50; settings: for ULCER PROTECTING EFFECT: indometacin 20 mg/kg, 24 h
Description: These tests were carried out according to the method of John and Adrian modified by Wilhelmi on the indometacin ulcer of rats (see Arzeimittelforschung Vol. 19 (1969) pages 45 et seq.).
The determination is carried out in the following manner.
Albino rats of the strain SIV 50 (S. Ivanovas, Kisslegg/allgau) having an initial weight of 250 to 300 grams were held in controlled temperature rooms at 20° to 22°C. in wire cages (Ebeco, Type 3 double width) on a standard diet (Altromin). After 48 hour feeding intervals the animals received 20 mg/kg rat of indometacin in 1.5% tragacanth (1 ml tragacanth solution per 100 grams of rat) applied introgastrally.
One hour after giving the indometacin there was dispensed orally to the animals the test substance. The rats remain otherwise fasting (water ad libitum)
Twenty four hours after giving the indometacin the animals were killed with […]. The stomach was resected, opened along the great curvature and washed under flowing water.
The ulcerative changes appear as dark, point or stria shaped spots on the mucosa. The evaluation was done according to the method of Munchow Arneimittedforschung Vol. 4 (1954) pages 341-344.

[3] = acute toxicity in the mouse (method of Miller and Tainter); settings: in vivo, oral application
Description: The acute toxicity of the compound of the invention in the mouse (expressed by LD50 mg/kg; method of Miller and Tainter; Proc. Soc. Exper. Biol. a. Med. Vol 57 (1944) pages 261 et seq.) on oral application, for example is above 6000 mg/kg.

[4] = ulcer healing / antiulcer activity, general statement (test not specified); type: in vivo
[5] = tested on: histamine ulcers of guinea pigs; assay: histamine type of ulcer of guinea pigs (method of Eagleton and Watt); type: in vivo; settings: oral, histamine diphosphate 5 mg/kg
Description: The testing of the histamine type of ulcer of guinea pigs is carried out for example by the method of Eagleton and Watt (Peptic Ulcer, Pfeiffer, Munksgaard, Copenhagen, printed in Denmark by Aarhuus, Stiftsbogtrykkerie A/S Arhus ISBN 8716003225 pages 34-44). The entire disclosure of the Eagleton and Watt article is hereby incorporated by reference and relied upon. There were employed predominantly male guinea pigs weighing 300 to 400 grams and the test substance was applied orally after 24 hour feeding intervals and 12 hours deprivation of drinking water. One hour after giving the substance the guinea pigs were given the injection of histamine diphosphate (histamine acid phosphate) at a dosage of 5 mg/kg (the histamine diphosphate was employed in aqueous solution at a concentration of 1 mg histamine disphosphate/ml). The histamine diphosphate was injected introperitoneally. Three hours after the injection of histamine the animals were killed with CO2. The stomachs were resected and cut open along the small curvature and turned upside down over the examination finger. The ulcers were evaluated according to Munchow (Arzneimittelforschung Vol. 4 (1954 pages 341-344).
The calculated control index must in the order of magnitude between 5 and 15.

Q: For `C=C1CC[C@@]2(OC1)O[C@H]1C[C@H]3[C@@H]4CC=C5C[C@@H](O)C[C@@H](O)[C@]5(C)[C@H]4[C@H](O)C[C@]3(C)[C@H]1[C@@H]2C` [Helleborus main sapogenin, spiro-5,25(27)-diene-1β,3β,11α-triol], which muscle relaxing activity (muscle relaxing activity) is on record?
A: The muscle relaxing activity was “muscle relaxing”.

Q: What about the “central nervous system influencing activity” value [1] of the same compound?
A: Its value is “central nervous system influencing activity has been established”.

Q: And the “ULCER PROTECTING EFFECT” value ([2]; daily dosage 50 mg/kg, oral)?
A: The value was 58%.

Q: What about the “ULCER PROTECTING EFFECT” value ([2]; daily dosage 100 mg/kg, oral) of the same compound?
A: The value was 78%.

Q: What about the “ULCER PROTECTING EFFECT” value ([2]; daily dosage 200 mg/kg, oral) of the same compound?
A: Its value is 80%.

Q: What about the anti-ulcer activity ([2]; indometacin ulcers of rats, oral) of the same compound?
A: Its anti-ulcer activity is “good anti-ulcer activity”.

Q: What about the minimal effective dose ([2]; po, orally, above mentioned animal experiments (indometacin ulcers of rats, histamine ulcers of guinea pigs), read-out: lowest effective dosage) of the same compound?
A: Its minimal effective dose is 50 mg/kg.

Q: What about the LD50 [3] of the same compound?
A: Its LD50 is > 6000 mg/kg.

Q: And the “antiulcer activity compared with Biogastrone” value ([4]; comparison with the known medicine Biogastrone)?
A: Its value is “comparable to the activity of the known medicine Biogastrone”.

Q: And the ulcer healing activity ([4]; in vivo)?
A: Its ulcer healing activity is “has an ulcer healing activity”.

Q: And the anti-ulcer activity [5]?
A: The anti-ulcer activity was “good anti-ulcer activity”.
